Molecules are shown by their SMILES.

One test has as its system NF-κB. The experiment in a line: NF-κB SEAP reporter assay in THP-1-Blue NF-κB cells, hIL1B stimulated. The class given is cell-based. To be noted: Table 15; THP-1-Blue cells, 1 ng/ml hIL1B, 24 h; read-out: NF-κB IL1B IC50. The protocol:
(§1) THP-1-Blue NF-κB cells (InvivoGen) carrying a stable integrated NF-κB-inducible secreted embryonic alkaline phosphatase (SEAP) reporter construct were plated at a concentration of 1×10^5 cells per well. The cells were stimulated with Pam3CSK4 (1 ng/ml) or hIL1B (1 ng/ml). After 10-20 minutes, the cells were then treated with vehicle (DMSO) or serial dilutions of the test compounds (10 doses tested for each test compound, with a […] starting at 1 μM or 3 μM) with a final volume of 200 μL for 24 hours at 37 °C. After 24 hours, the cells were centrifuged and 20 μL supernatant was incubated with 180 μL QUANTI-Blue reagent at 37 °C for 30-60 minutes. The levels of NF-κB-induced was measured in a microplate reader at 620 nm.
as §1, with “1 mM” for “1 μM”, “3 mM)” for “3 μM)”, “200 mL” for “200 μL”, “20 mL” for “20 μL”, “180 mL” for “180 μL”, “NF-κB-induced gene expression were” for “NF-κB-induced was”
In general terms: Reporter assays use an easily measured gene product as a stand-in for the process of interest.
`COc1cn2ncc(-c3cccc(N[C@@H]4CCCNC4)n3)c2nc1C1CC1` [Compound 20, (R)-6-(5-cyclopropyl-6-methoxypyrazolo[1,5-a]pyrimidin-3-yl)-N-(piperidin-3-yl)pyridin-2-amine]: the concentration for half-maximal inhibition (IC50) came to 646 nM. Still for that read-out and setting: then `COc1cn2ncc(-c3nc(N[C@@H]4CCCNC4)c(C#N)cc3F)c2nc1C(C)(C)O` [Compound 9, (R)-5-fluoro-6-(5-(2-hydroxypropan-2-yl)-6-methoxypyrazolo[1,5-a]pyrimidin-3-yl)-2-(piperidin-3-ylamino)nicotinonitrile], with 88 nM; and `COc1cn2ncc(-c3ccc(F)c(N[C@H]4CNCC[C@@H]4F)n3)c2nc1C1CC1` [Compound 6, 6-(5-cyclopropyl-6-methoxypyrazolo[1,5-a]pyrimidin-3-yl)-3-fluoro-N-((3S,4S)-4-fluoropiperidin-3-yl)pyridin-2-amine], with 219 nM; and `COc1cn2ncc(-c3cccc(N[C@H]4CNCC[C@@H]4F)n3)c2nc1C1CC1` [Compound 21, 6-(5-cyclopropyl-6-methoxypyrazolo[1,5-a]pyrimidin-3-yl)-N-((3S,4S)-4-fluoropiperidin-3-yl)pyridin-2-amine], with 342 nM. Same read-out and setting: to `COc1cn2ncc(-c3cccc(N[C@H]4CNC[C@@H]4F)n3)c2nc1C1CC1` [Compound 19, 6-(5-cyclopropyl-6-methoxypyrazolo[1,5-a]pyrimidin-3-yl)-N-((3S,4S)-4-fluoropyrrolidin-3-yl)pyridin-2-amine] belongs 97 nM; to `COc1cn2ncc(-c3nc(N[C@H]4CNCC[C@@H]4F)c(C#N)cc3F)c2nc1C(C)(C)O` [Compound 10, 5-fluoro-2-(((3S,4S)-4-fluoropiperidin-3-yl)amino)-6-(5-(2-hydroxypropan-2-yl)-6-methoxypyrazolo[1,5-a]pyrimidin-3-yl)nicotinonitrile], 41 nM; to `COc1cn2ncc(-c3nc(N[C@@H]4CCCNC4)c(F)cc3F)c2nc1C(C)(C)O` [Compound 11, (R)-2-(3-(3,5-difluoro-6-(piperidin-3-ylamino)pyridin-2-yl)-6-methoxypyrazolo[1,5-a]pyrimidin-5-yl)propan-2-ol], 101 nM. On the same count and under the same terms, to `COc1cn2ncc(-c3nc(N[C@H]4CNCC[C@@H]4F)ccc3F)c2nc1C1CC1` [Compound 3, 6-(5-cyclopropyl-6-methoxypyrazolo[1,5-a]pyrimidin-3-yl)-5-fluoro-N-((3S,4S)-4-fluoropiperidin-3-yl)pyridin-2-amine] belongs 26 nM; to `COc1cn2ncc(-c3nc(N[C@@H]4CCCNC4)ccc3F)c2nc1C1CC1` [Compound 2, (R)-6-(5-cyclopropyl-6-methoxypyrazolo[1,5-a]pyrimidin-3-yl)-5-fluoro-N-(piperidin-3-yl)pyridin-2-amine], 94 nM; to `COc1cn2ncc(-c3nc(N[C@H]4CNC[C@@H]4F)c(F)cc3F)c2nc1C(C)(C)O` [Compound 12, 2-(3-(3,5-difluoro-6-(((3S,4S)-4-fluoropyrrolidin-3-yl)amino)pyridin-2-yl)-6-methoxypyrazolo[1,5-a]pyrimidin-5-yl)propan-2-ol], 41 nM. For the molecule `COc1cn2ncc(-c3nc(N[C@H]4CNCC[C@@H]4F)c(F)cc3F)c2nc1C1CC1` [Compound 22, 6-(5-cyclopropyl-6-methoxypyrazolo[1,5-a]pyrimidin-3-yl)-3,5-difluoro-N-((3S,4S)-4-fluoropiperidin-3-yl)pyridin-2-amine], the IC50 is 19 nM. The same measure, in the same setting: to `COc1cn2ncc(-c3nc(N[C@H]4CNCC[C@@H]4F)c(F)cc3F)c2nc1C(C)(C)O` [Compound 13, 2-(3-(3,5-difluoro-6-(((3S,4S)-4-fluoropiperidin-3-yl)amino)pyridin-2-yl)-6-methoxypyrazolo[1,5-a]pyrimidin-5-yl)propan-2-ol] belongs 73 nM.

The same test, now with this note: Table 21; THP-1-Blue cells, 1 ng/ml hIL1B, 24 h; read-out: NF-κB IL1B IC50.
On to `COc1cn2ncc(-c3nc(N[C@H]4CNCC[C@@H]4F)ncc3F)c2nc1C(C)(C)O` [Compound 6a, 2-(3-(5-fluoro-2-(((3S,4S)-4-fluoropiperidin-3-yl)amino)pyrimidin-4-yl)-6-methoxypyrazolo[1,5-a]pyrimidin-5-yl)propan-2-ol], for which the IC50 was 52 nM. The same measure, in the same setting: to `COc1cn2ncc(-c3cncc(N[C@H]4CNCC[C@@H]4F)n3)c2nc1C1CC1` [Compound 12a, 6-(5-cyclopropyl-6-methoxypyrazolo[1,5-a]pyrimidin-3-yl)-N-((3S,4S)-4-fluoropiperidin-3-yl)pyrazin-2-amine] belongs 55 nM. The same measure, in the same setting: to `COc1cn2ncc(-c3cncc(N[C@@H]4CCCNC4)n3)c2nc1C1CC1` [Compound 11a, (R)-6-(5-cyclopropyl-6-methoxypyrazolo[1,5-a]pyrimidin-3-yl)-N-(piperidin-3-yl)pyrazin-2-amine] belongs 244 nM; to `COc1cn2ncc(-c3nc(N[C@@H]4CCCNC4)ncc3F)c2nc1C1CC1` [Compound 14a, (R)-4-(5-cyclopropyl-6-methoxypyrazolo[1,5-a]pyrimidin-3-yl)-5-fluoro-N-(piperidin-3-yl)pyrimidin-2-amine], 22 nM. The same measure, in the same setting: then `COc1cn2ncc(-c3nc(N[C@H]4CNCC[C@@H]4F)ncc3F)c2nc1C1CC1` [Compound 15a, 4-(5-cyclopropyl-6-methoxypyrazolo[1,5-a]pyrimidin-3-yl)-5-fluoro-N-((3S,4S)-4-fluoropiperidin-3-yl)pyrimidin-2-amine], with 8 nM.

As to `COc1cn2ncc(-c3ccnc(N[C@H]4CNC[C@@H]4F)n3)c2nc1C1CC1` [Compound 8a, 4-(5-cyclopropyl-6-methoxypyrazolo[1,5-a]pyrimidin-3-yl)-N-((3S,4S)-4-fluoropyrrolidin-3-yl)pyrimidin-2-amine], the concentration for half-maximal inhibition (IC50) was 46 nM. On the same count and under the same terms, to `COc1cn2ncc(-c3nc(N[C@H]4CNC[C@@H]4F)ncc3F)c2nc1C1CC1` [Compound 13a, 4-(5-cyclopropyl-6-methoxypyrazolo[1,5-a]pyrimidin-3-yl)-5-fluoro-N-((3S,4S)-4-fluoropyrrolidin-3-yl)pyrimidin-2-amine] belongs 27 nM. As to `COc1cn2ncc(-c3ccnc(N[C@H]4CNCC[C@@H]4F)n3)c2nc1C1CC1` [Compound 7a, 4-(5-cyclopropyl-6-methoxypyrazolo[1,5-a]pyrimidin-3-yl)-N-((3S,4S)-4-fluoropiperidin-3-yl)pyrimidin-2-amine], the IC50 is 50 nM.

Broadly, the IC50 is the concentration at which inhibition is half-maximal.

These data come from patent publication US20260374773A1, “MULTI-CYCLIC IRAK AND FLT3 INHIBITING COMPOUNDS AND USES THEREOF” (CHILDREN'S HOSPITAL MEDICAL CENTER, priority 2022, published 2026).
